Laboratory results from patent EP0164700B1, “Bis(beta-hydroxy phenethyl)amines” (BEECHAM GROUP PLC, priority 1984, dated 1985).
Where a name gives a salt, the structure may show the parent alone. Read-outs that look alike come from different tables or passages of the source.

Tests used:
Format in all cases: in vivo
[1] = test system: Female BALB/c mice; assay: Anti-obesity activity (weight of parametrial fat pads); conditions: 5.8 mg/kg of diet, added to the diet for 3 days, treated animals compared with controls, mean of 9 values
Method: Female BALB/c mice were trained to feed on powdered oxoid for 1 week. They were then housed in threes and the compound under study was added to the diet for 3 days. Food was removed at 09.00h and the mice were killed at 11.00h. The parmetrial fat pads were weighed as pairs. The result is a mean of 9 values.
The compound of Example Number 3 gave a 38% reduction in weight of perigenital adipose tissue in. treated animals compared with controls when given at a dose of 5.8 mg/kg of diet.

[2] = test system: Male Sprague-Dawley rats; assay: Effect on energy expenditure of rats; conditions: Rattus norvegicus, po; for response vs control in vivo at 5.8 mg/kg: dose 5.8 mg/kg p.o.; for response vs control in vivo at 5.8 mg/kg / response vs control in vivo at 26.4 mg/kg / response vs control in vivo at 4.73 mg/kg / response vs control in vivo at 10.3 mg/kg / response vs control in vivo at 0.57 mg/kg / response vs control in vivo at 10.4 mg/kg / response vs control in vivo at 9.4 mg/kg: percentage of the rate of energy expenditure of the rats dosed with water, fasted rats; for response vs control in vivo at 26.4 mg/kg: dose 26.4 mg/kg p.o.; for response vs control in vivo at 4.73 mg/kg: dose 4.73 mg/kg p.o.; for response vs control in vivo at 10.3 mg/kg: dose 10.3 mg/kg p.o.; for response vs control in vivo at 0.57 mg/kg: dose 0.57 mg/kg p.o.; for response vs control in vivo at 10.4 mg/kg: dose 10.4 mg/kg p.o.; for response vs control in vivo at 9.4 mg/kg: dose 9.4 mg/kg p.o.
Method: Male Sprague-Dawley rats each weighing between 170-200 g were deprived of food for 16 hours before, and during the experiment. Water was provided ab lib at all times. The compounds were administered orally in water to 3 or 4 rats. A further 4 rats were dosed orally with water. The rats were placed in boxes through which air was drawn and the oxygen content of the air leaving the boxes was measured. The energy expenditure of the rats was calculated for 3 hours and for 21 hours after dosing from the volume of air leaving the boxes and its oxygen content, following the pinciples described by J. B. de V. Weir, J. Physiol. (London) 109, 1-9 (1949). The results are expressed as a percentage of the rate of energy expenditure of the rats dosed with water.

[3] = test system: Female CFLP mice; assay: Anti-hyperglycaemic activity (glucose tolerance after subcutaneous glucose load); conditions: 24 h fasted mice, glucose 1 g/kg s.c. 30 min after dosing, 2 hour period, compared with water controls
Method: Female CFLP mice, weighing approximately 25 g, were fasted for 24 hours prior to the study. The compound under study was administered orally as an aqueous solution to each of 6 mice. 30 minutes later a blood sample (10 µl) was obtained from the tail for the analysis of blood glucose. Immediately after taking this blood sample, glucose (1 g/kg body weight) was administered subcutaneously to each mouse. 6 mice were given water as a control. Blood samples were then obtained from each mouse at 30 minute intervals for 120 minutes.
Compounds that produce a significant (P<0.05) reduction of blood glucose, compared with control mice given water, at any time interval, are considered active. The area under the blood glucose curve over the 2 hour period after the administration of the glucose was calculated for the compounds and compared with the value for control animals.

[4] = 3 h, read-out: Mean Energy Expenditure (0—3h)
[5] = 21 h, read-out: Mean Energy Expenditure (9—21h)

## CCOC(=O)COc1ccc(C[C@@H](C)N(C[C@H](O)c2cccc(Cl)c2)C[C@H](O)c2cccc(Cl)c2)cc1.Cl [Example 3, Ethyl 4-[(R)-2-[bis-[(R)-β-hydroxy-3-chlorophenethyl]amino]propyl]phenoxyacetate hydrochloride]
[1]
  reduction in weight of perigenital adipose tissue: 38%
[2]; [4]
  response vs control in vivo at 5.8 mg/kg: 144%
[2]; [5]
  response vs control in vivo at 5.8 mg/kg: 132%

## CCOC(=O)COc1ccc(CC[C@@H](C)N(C[C@H](O)c2ccccc2)C[C@H](O)c2ccccc2)cc1.Cl [Example 4, Ethyl 4-[(R)-3-[bis-[(R)-β-hydroxyphenethyl]amino]butyl]phenoxyacetate hydrochloride]
[3]; dose 12.5 µmol/kg orally
  % Reduction in area under Blood Glucose Curve: 42%
[2]; [4]
  response vs control in vivo at 26.4 mg/kg: 111%
[2]; [5]
  response vs control in vivo at 26.4 mg/kg: 99%

## C[C@H](COc1ccc(OCC(N)=O)cc1)N(C[C@H](O)c1ccccc1)C[C@H](O)c1ccccc1 [Example 8, 4-[(R)-2-[bis-[(R)-β-hydroxyphenethyl]amino]propoxy]phenoxyacetamide hydrochloride]
[2]; [4]
  response vs control in vivo at 4.73 mg/kg: 113%
[2]; [5]
  response vs control in vivo at 4.73 mg/kg: 103%

## CNC(=O)COc1ccc(C[C@@H](C)N(C[C@H](O)c2ccccc2)C[C@H](O)c2ccccc2)cc1.Cl [Example 6, N-Methyl 4-[(R)-2-[bis-[(R)-β-hydroxyphenethyl]amino]propyl]phenoxyacetamide hydrochloride]
[3]; dose 2.5 µmol/kg orally
  % Reduction in area under Blood Glucose Curve: 52%
[2]; [4]
  response vs control in vivo at 10 mg/kg: 154%
[2]; [5]
  response vs control in vivo at 10 mg/kg: 147%

## CCOC(=O)COc1ccc(C[C@@H](C)N(C[C@H](O)c2ccccc2)C[C@H](O)c2ccccc2)cc1.Cl [Example 2, Ethyl 4-[(R)-2-[bis-[(R)-β-hydroxyphenethyl]amino]propyl]phenoxyacetate hydrochloride]
[3]; dose 2.5 µmol/kg orally
  % Reduction in area under Blood Glucose Curve: 52%
[2]; [4]
  response vs control in vivo at 10.3 mg/kg: 146%
[2]; [5]
  response vs control in vivo at 10.3 mg/kg: 143%

## COC(=O)COc1ccc(CC(C)N(CC(O)c2cccc(Cl)c2)CC(O)c2cccc(Cl)c2)cc1.Cl.O (stereo not drawn) [Example 1, Methyl 4-[2-[bis-[β-hydroxy-3-chlorophenethyl]amino]propyl]phenoxyacetate hydrochloride monohydrate]
[3]; dose 5 µmol/kg orally
  % Reduction in area under Blood Glucose Curve: 55%
[2]; [4]
  response vs control in vivo at 0.57 mg/kg: 132%
[2]; [5]
  response vs control in vivo at 0.57 mg/kg: 110%

## CNCCOc1ccc(C[C@@H](C)N(C[C@H](O)c2ccccc2)C[C@H](O)c2ccccc2)cc1 [Example 7, N-Methyl 4-[(R)-2-[bis-[(R)-β-hydroxyphenethyl]amino]propyl]phenoxy ethylamine dihydrochloride]
[3]; dose 2.5 µmol/kg orally
  % Reduction in area under Blood Glucose Curve: 50%
[2]; [4]
  response vs control in vivo at 10.4 mg/kg: 145%
[2]; [5]
  response vs control in vivo at 10.4 mg/kg: 146%

## C[C@H](Cc1ccc(OCCO)cc1)N(C[C@H](O)c1ccccc1)C[C@H](O)c1ccccc1 [Example 5, 4-[(R)-2-[bis-[(R)-β-hydroxyphenethyl]amino]propyl]phenoxyethanol hydrochloride]
[3]; dose 2.5 µmol/kg orally
  % Reduction in area under Blood Glucose Curve: 54%
[2]; [4]
  response vs control in vivo at 9.4 mg/kg: 159%
[2]; [5]
  response vs control in vivo at 9.4 mg/kg: 152%
